Reference: patent US8772267B2, “Treatment of spinal mechanical pain” (New York University, priority 2002, dated 2014)

Key:
antinociception = settings: injected into the tails of mice; cited from earlier work
[1] = Bone density of the infused subjects; assay type: in vivo, human; settings: all three subjects
Experimental: (§1) Three subjects, suffering from chronic daily (longer than 1 year) axial mechanical pain of the spine, were given approximately 1.2 mg per kg pamidronate as an intravenous infusion over 4 hours once a day for three consecutive days (total 3.6 mg/kg).
(§2) Assessments of axial spinal pain using a numerical scale (0=no pain; 10=the worst pain imaginable) were performed at baseline and at 1 month, 2 month, 4 month, and 6 month follow-up visits.

bone resorption = settings: animal studies, cited from earlier work
[2] = test system: bone pain from metastatic cancer; settings: patients suffering from bone pain from metastatic cancer; cited from earlier work
[3] = Adverse effects in the infused subjects; assay type: in vivo, human
Experimental: as §1
as §2, with “On the second day of infusion, 2 of the 3 subjects reported myalgias that responded well to anti-inflammatory (NSAID) agents. […] Assessments” for “Assessments”

[4] = test system: axial mechanical pain of the spine; test: Axial spinal pain on a numerical scale after intravenous infusion in subjects with chronic spinal mechanical pain; assay type: in vivo, human
Experimental: as §1
as §2, with “On the second day of infusion, 2 of the 3 subjects reported myalgias that responded well to anti-inflammatory (NSAID) agents. […] Assessments” for “Assessments”

[5] = known; cited from earlier work
[6] = Subject 1, baseline 8, scale 0-10, 1.2 mg/kg iv once a day for 3 days
[7] = Subject 2, baseline 8-9, scale 0-10, 1.2 mg/kg iv once a day for 3 days
[8] = Subject 3, baseline 5, scale 0-10, 1.2 mg/kg iv once a day for 3 days

## NCCC(O)(P(=O)(O)O)P(=O)(O)O [pamidronate]
antinociception
  antinociceptive effect: dose-dependent antinociception
[1]
  bone density change: increase in their bone density
[1]; 6 months post-infusion
  bone density change at 6 months post-infusion: increase in their bone density
Bone resorption; doses recommended for the treatment of hypercalcemia
  effect on bone resorption: inhibits bone resorption apparently without inhibiting bone formation and mineralization
Bone resorption
  effect on accelerated bone resorption from osteoclast hyperactivity induced by various tumors: inhibits the accelerated bone resorption
[2]
  longest reported duration of analgesic effect: 2-3 weeks
[3]; second day of infusion, responded well to NSAID agents
  subjects reporting myalgias: 2 of the 3
[3]; three subjects, 3.6 mg/kg total iv
  hypocalcemia, cardiac, hepatic or renal impairments: did not exhibit any hypocalcemia, cardiac, hepatic or renal impairments
[4]; 2 months from initiation of infusion therapy
  use of opioid agents: all subjects discontinued the opioid agents
[4]; 6 months after therapy, all three subjects
  pain status of all three subjects 6 months after the 3-day therapy: pain free
[4]; Subject 1 (DDD and osteopenia), baseline 8, 0=no pain, 10=worst pain imaginable, 1.2 mg/kg iv over 4 h once a day for 3 days
  axial spinal pain, numerical scale, 1 month: 4
[4]; [6]
  axial spinal pain, numerical scale, 2 months: 0
  axial spinal pain, numerical scale, 4 months: 0
  axial spinal pain, numerical scale, 6 months: 0
[4]; Subject 2 (DDD and moderate osteoporosis), baseline 8-9, scale 0-10, 1.2 mg/kg iv once a day for 3 days
  axial spinal pain, numerical scale, 1 month: 5
[4]; [7]
  axial spinal pain, numerical scale, 2 months: 0
  axial spinal pain, numerical scale, 4 months: 0
  axial spinal pain, numerical scale, 6 months: 0
[4]; Subject 3 (DDD), baseline 5, scale 0-10, 1.2 mg/kg iv once a day for 3 days
  axial spinal pain, numerical scale, 1 month: 0
[4]; [8]
  axial spinal pain, numerical scale, 2 months: 0
  axial spinal pain, numerical scale, 4 months: 0
  axial spinal pain, numerical scale, 6 months: 0
[4]; iv treatment of chronic spinal mechanical pain
  duration of pain relieving effects: ≥ 6 months

## CC(C)Cc1ccc(C(C)C(=O)O)cc1 (centres unmarked) [ibuprofen]
[5]
  duration of analgesic effect: only a few hours

## CC(=O)Nc1ccc(O)cc1 [acetaminophen]
[5]
  duration of analgesic effect: only a few hours

## CC(O)(P(=O)(O)O)P(=O)(O)O [etidronate]
antinociception
  antinociceptive effect: analgesic effect only at the highest dose tested

## CC(=O)Oc1ccccc1C(=O)O [acetylsalicylic acid]
antinociception
  antinociceptive effect: dose-dependent antinociception

## O=P(O)(O)C(Cl)(Cl)P(=O)(O)O [clodronate]
antinociception
  antinociceptive effect: dose-dependent antinociception

## NCCCC(O)(P(=O)(O)O)P(=O)(O)O [alendronate]
antinociception
  antinociceptive effect: analgesic effect only at the highest dose tested
